These results are taken from publication PMC9120017, “Inhibition mechanism of the chloride channel TMEM16A by the pore blocker 1PBC” (Nature Communications, 2022).

The structures appear in SMILES notation. Where two headings read alike, the source gives them in different places.

This experiment deals with T1, mouse TMEM16A mutant I551A (Mus musculus, UniProt Q8BHY3, I551A).
T1 construct: expressed in transfected cells; host or cells: HEK293T
T1 sequence (Q8BHY3 1-960 I551A): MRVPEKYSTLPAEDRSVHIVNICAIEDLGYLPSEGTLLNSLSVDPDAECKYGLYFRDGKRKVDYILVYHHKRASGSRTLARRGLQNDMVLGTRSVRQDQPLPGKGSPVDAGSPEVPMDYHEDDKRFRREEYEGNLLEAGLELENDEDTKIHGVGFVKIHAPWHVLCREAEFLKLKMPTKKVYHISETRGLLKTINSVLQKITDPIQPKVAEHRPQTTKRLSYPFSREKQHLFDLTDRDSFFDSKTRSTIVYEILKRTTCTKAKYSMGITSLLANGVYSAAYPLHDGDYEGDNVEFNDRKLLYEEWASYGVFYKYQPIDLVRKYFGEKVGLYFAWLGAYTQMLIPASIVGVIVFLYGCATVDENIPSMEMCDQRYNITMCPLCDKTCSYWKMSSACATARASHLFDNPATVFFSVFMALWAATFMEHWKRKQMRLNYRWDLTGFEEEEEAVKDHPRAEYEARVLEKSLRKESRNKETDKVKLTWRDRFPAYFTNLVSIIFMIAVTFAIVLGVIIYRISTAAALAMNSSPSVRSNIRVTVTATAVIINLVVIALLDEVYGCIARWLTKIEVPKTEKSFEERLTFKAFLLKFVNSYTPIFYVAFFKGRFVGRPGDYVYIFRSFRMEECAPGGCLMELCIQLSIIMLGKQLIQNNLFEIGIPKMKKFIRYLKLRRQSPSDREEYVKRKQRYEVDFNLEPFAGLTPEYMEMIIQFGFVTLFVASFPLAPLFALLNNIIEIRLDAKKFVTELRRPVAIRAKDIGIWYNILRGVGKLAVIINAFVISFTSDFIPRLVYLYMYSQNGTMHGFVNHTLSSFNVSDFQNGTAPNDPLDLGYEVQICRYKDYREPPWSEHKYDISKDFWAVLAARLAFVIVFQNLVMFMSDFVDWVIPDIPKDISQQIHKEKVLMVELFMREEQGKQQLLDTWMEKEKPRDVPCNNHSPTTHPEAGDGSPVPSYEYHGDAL
Briefly: Inside-out patch recording of 1PBC block, constitutively active mutant I551A. The format is cell-based. As to conditions: for remaining activity at 3 µM: 3 µM 1PBC; for remaining activity at 10 µM: 10 µM 1PBC; for remaining activity at 30 µM: 30 µM 1PBC. Here is the method: HEK293T cells (ATCC CRL-1573) were maintained in Dulbecco’s modified Eagle’s medium (DMEM; Sigma-Aldrich) supplemented with 10 U ml^−1 penicillin, 0.1 mg ml^−1 streptomycin (Sigma-Aldrich), 2 mM L-glutamine (Sigma-Aldrich), and 10% FBS (Sigma-Aldrich) in a humidified atmosphere containing 5% CO2 at 37 °C. HEK293S GnTI^− cells (ATCC CRL-3022) were maintained in HyClone HyCell TransFx-H medium (GE Healthcare) supplemented with 10 U ml^−1 penicillin, 0.1 mg ml^−1 streptomycin, 4 mM L-glutamine, 0.15% poloxamer 188 (Sigma-Aldrich), and 1% FBS in an atmosphere containing 5% CO2 at 185 rpm at 37 °C. The ac splice variant of mouse TMEM16A (UniProt ID: Q8BHY3), mouse TMEM16B (UniProt ID: Q8CFW1), or mouse TMEM16F (UniProt ID: Q6P9J9) bearing a 3C cleavage site, a Venus YFP, a Myc tag, and a Streptavidin-binding peptide (SBP) downstream of the open reading frame in a modified pcDNA3.1 vector (Invitrogen) were used as described previously[21],[31]. Mutations were introduced using a modified QuikChange method[58] and were verified by sequencing.
HEK293T cells were transfected with 3–4 μg DNA per 6 cm Petri dish using the calcium phosphate co-precipitation method and were used within 24–96 h after transfection. Recordings were performed on inside-out patches excised from HEK293T cells expressing the construct of interest. Patch pipettes were pulled from borosilicate glass capillaries (O.D. 1.5 mm, I.D. 0.86 mm, Sutter Instrument) and were fire-polished with a microforge (Narishige) before use. Pipette resistance was typically 3–8 MΩ when filled with the recording solutions detailed below. Seal resistance was typically 4 GΩ or higher. Voltage-clamp recordings were made using Axopatch 200B, Digidata 1550, and Clampex 10.7 (Molecular Devices). Analog signals were filtered with the in-built 4-pole Bessel filter at 10 kHz and were digitized at 20 kHz. Solution exchange was achieved using a gravity-fed system through a theta glass pipette mounted on an ultra-fast piezo-driven stepper (Siskiyou). […] All recordings were performed at 20 °C.
A symmetrical ionic condition was used throughout. Stock solution with Ca^2+-EGTA contained 150 mM NaCl, 5.99 mM Ca(OH)2, 5 mM EGTA, and 10 mM HEPES at pH 7.40. Stock solution with EGTA contained 150 mM NaCl, 5 mM EGTA, and 10 mM HEPES at pH 7.40. Free Ca^2+ concentrations were adjusted by mixing the stock solutions at the required ratios calculated using the WEBMAXC program (http://web.stanford.edu/~cpatton/webmaxcS.htm). Patch pipettes were filled with the stock solution with Ca^2+-EGTA, which has a free Ca^2+ concentration of 1 mM. 1PBC (ChemBridge) stock was reconstituted in anhydrous DMSO (Sigma-Aldrich) at 100 mM and stored at −20 °C. Working solutions with 1PBC were prepared by serial dilution. Unless otherwise stated, experiments were performed at a saturating Ca^2+ concentration as shown in Supplementary Table 1 and the primary data were corrected for current rundown as described previously[21],[25].
Concentration-response relations, obtained from the ratio of the I-V plots before and after the application of the blocker, were fitted to the Hill equation,1 I/Imax=1/1+IC50/[blocker]^h where I/Imax is the normalized current responses, IC50 defines the concentration at which inhibition is at its half-maximum, and h is the Hill coefficient.

Setting [1] is: 0 mV, 2 µM Ca2+, read-out: I/Imax.
The mark [2] stands for this setting: 0 mV, zero Ca2+, read-out: I/Imax.

With `N#Cc1c(C(F)(F)F)cc(O)n2c1nc1ccccc12` [1PBC], the “I/Imax_+80mV” value runs as follows: (0Ca, 3 μM 1PBC) 0.9297; (0Ca, 10 μM 1PBC) 0.7725; (0Ca, 30 μM 1PBC) 0.5277; (0Ca, 100 μM 1PBC) 0.2921; (Ca, 1 μM 1PBC) 0.7719; (Ca, 3 μM 1PBC) 0.5347. Further, the “I/Imax_+80mV” value amounted to 0.2656 (Ca, 10 μM 1PBC) and 0.1169 (Ca, 30 μM 1PBC). Moreover, the I/Imax_-80mV reads like this: (0Ca, 3 μM 1PBC) 0.9659; (0Ca, 10 μM 1PBC) 0.8504; (0Ca, 30 μM 1PBC) 0.6475; (0Ca, 100 μM 1PBC) 0.3933; (Ca, 1 μM 1PBC) 0.9016; (Ca, 3 μM 1PBC) 0.7407. Also, the I/Imax_-80mV reads like this: (Ca, 10 μM 1PBC) 0.4452; (Ca, 30 μM 1PBC) 0.2272. In addition, where the note is “1 µM 1PBC, 0 mV, 2 µM Ca2+, read-out: I/Imax”, the remaining activity at 1 µM came to 80.9%. In addition, the remaining activity at 3 µM by setting is: under setting [1], 60.1%; under setting [2], 93.2%. Moreover, the remaining activity at 10 µM under setting [1] worked out at 31.1% and the remaining activity at 10 µM under setting [2] stood at 80.6%. The remaining activity at 30 µM is, setting by setting: under setting [1], 14.8%; under setting [2], 58.2%. Further, the remaining activity at 100 µM (100 µM 1PBC, 0 mV, zero Ca2+, read-out: I/Imax) stood at 33.3%.
